Source: patent US10947222B2, “Indole derivatives useful as inhibitors of diacylglyceride O-acyltransferase 2” (Merck Sharp & Dohme Corp., priority 2016, dated 2021)
One block for each molecule: values may come before it.

Target: human DGAT2 (hDGAT2) (Homo sapiens (Human), UniProt Q96PD7)
Experiment: DGAT2 enzymatic activity assay (triolein formation, LC/MS/MS)
Format: biochemical
Settings: Sf-9 membrane prep expressing hDGAT2; 25 μM diolein, 10 μM oleoyl-CoA; triolein by LC/MS/MS
Description: Sf-9 insect cells were maintained in Grace's insect cell culture medium with 10% heated-inactivated fetal bovine serum, 1% Pluronic F-68 and 0.14 μg/ml Kanamycine sulfate in Erlenmeyer flasks at 28° C. in a shaker incubator. After infection with untagged baculovirus expressing human DGAT2 (hDGAT2) at multiplicity of infection (MOI) 0.1 for 48 hours, cells were harvested. Cell pellets were suspended in buffer containing 10 mM Tris-HCl (pH 7.5), 1 mM EDTA (pH 8.0), 250 mM sucrose and Complete Protease Inhibitor Cocktail (Roche Diagnostics Corp., Indianapolis, Ill.), and sonicated on ice. Membrane fractions were isolated by ultracentrifugation (100,000×g pellet), resuspended in the same buffer, and frozen (−80° C.) for later use. The protein concentration was determined with the BCA Protein Assay kit (Pierce Biotechnology Inc., Rockford, Ill.). Expression of protein levels was analyzed by immunoblotting with goat polyclonal DGAT2 antibody C-15 and donkey anti-goat IgG HRP (Santa Cruz Biotechnology, Inc., Santa Cruz, Calif.) followed by detection with ECL reagent (GE Healthcare, Piscataway, N.J.).
LC/MS/MS analyses were performed using Thermal Fisher's LX4-TSQ Vantage system. This system consists of an Agilent binary high-performance liquid chromatography (HPLC) pumps and a TSQ Vantage triple quadrupole MS/MS instrument. For each sample, 2 μL samples from the top organic layer of in-plate liquid-liquid extraction were injected onto a Thermo Betabasic C4 column (2.1 mm×20 mm, 5 μm particle size). The samples were then eluted using the following conditions; mobile phase: methanol/water with 0.1% ammonium format=92/8 (v/v), flow rate: 1 mL/min, temperature: 25 C. Data was acquired in positive mode using a heated electrospray ionization (HESI) interface. The operational parameters for the TSQ Vantage MS/MS instrument were a spray voltage of 3000 V, capillary temperature of 280° C., vaporizer temperature 400° C., shealth gas 60 arbitrary unit, Aux gas 40 arbitrary units, S-lens 113 and collision gas 0.16 Pascals. […] (SRM) chromatograms of triolein (Q1:902.9>Q3:602.3) and internal standard (Q1:902.9>Q3:602.3) were collected for 40 sec. The peak area was integrated by Xcalibur Quan software. The ratio between the triolein generated in the reaction and spiked in internal standard was used to generate percentage inhibition and IC50 values. Compound percentage inhibition was calculated by the following formula: Inhibition %/=1−[(compound response−low control)/(high control−low control)]×100%. Potent compounds were titrated and IC50 were calculated by 4 parameter sigmoidal curve fitting formula.
DGAT2 activity was determined by measuring the amount of enzymatic product triolein (1,2,3-Tri(cis-9-octadecenoyl)glycerol) using the membrane prep mentioned above. The assay was carried out in deep well 384 plates in a final volume of 40 μL at rt. The assay mixture contained the following: assay buffer (100 mM Tris.Cl, pH 7.0, 20 mM MgCl2, 5% ethanol), 25 μM of diolein, 10 μM of oleoyl-CoA and 10 ng/μL of DGAT2 membrane.

Chain of human DGAT2 (hDGAT2) (Q96PD7 whole entry): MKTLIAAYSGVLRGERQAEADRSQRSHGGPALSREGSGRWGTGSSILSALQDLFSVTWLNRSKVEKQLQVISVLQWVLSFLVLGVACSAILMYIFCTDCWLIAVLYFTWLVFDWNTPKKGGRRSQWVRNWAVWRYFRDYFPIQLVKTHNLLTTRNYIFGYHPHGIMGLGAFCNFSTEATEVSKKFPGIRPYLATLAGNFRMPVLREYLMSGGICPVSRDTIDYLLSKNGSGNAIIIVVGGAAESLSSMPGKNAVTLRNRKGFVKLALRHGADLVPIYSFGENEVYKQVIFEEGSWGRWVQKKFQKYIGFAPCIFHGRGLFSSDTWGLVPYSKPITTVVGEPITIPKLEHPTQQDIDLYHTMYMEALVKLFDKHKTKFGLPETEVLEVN

- IC50: 0.94 nM
SMILES: CC1(NC(=O)c2ccc3c(-c4cccc(OC(F)F)c4)cn(-c4ccc(F)cn4)c3c2)CCS(=O)(=O)C1 (single isomer, unassigned; enantiomer a) [Example 10-A, 3-(3-(difluoromethoxy)phenyl)-1-(5-fluoropyridin-2-yl)-N-(3-methyl-1,1-dioxidotetrahydrothiophen-3-yl)-1H-indole-6-carboxamide (enantiomer A)]

- IC50: 1.8 nM
SMILES: O=C(NC1CCS(=O)(=O)C1)c1ccc2c(-c3cccc(OC(F)F)c3)cn(-c3ccc(F)cn3)c2c1 (single isomer, unassigned; enantiomer a) [Example 13-A, 3-(3-(difluoromethoxy)phenyl)-N-(1,1-dioxidotetrahydrothiophen-3-yl)-1-(5-fluoropyridin-2-yl)-1H-indole-6-carboxamide (enantiomer A)]

- IC50: 78 nM
SMILES: CC1(NC(=O)c2ccc3c(-c4ccccc4Cl)cn(-c4ncc(F)cn4)c3c2)CCS(=O)(=O)C1 (single isomer, unassigned; enantiomer a) [Example 15-A, 3-(2-chlorophenyl)-1-(5-fluoropyrimidin-2-yl)-N-(3-methyl-1,1-dioxidotetrahydrothiophen-3-yl)-1H-indole-6-carboxamide (enantiomer A, fast)]

- IC50: 3.3 nM
SMILES: O=C(NC1CCS(=O)(=O)C1)c1ccc2c(-c3cccc(C4CC4)c3)cn(-c3ncc(F)cn3)c2c1 (single isomer, unassigned; enantiomer a) [Example 17-A, 3-(3-cyclopropylphenyl)-N-(1,1-dioxidotetrahydrothiophen-3-yl)-1-(5-fluoropyrimidin-2-yl)-1H-indole-6-carboxamide (enantiomer A)]

- IC50: 1.7 nM
SMILES: CC1(NC(=O)c2ccc3c(-c4cccc(OC(F)F)c4)cn(-c4ncc(F)cn4)c3c2)CCS(=O)(=O)C1 (single isomer, unassigned; enantiomer a) [Example 18-A, 3-(3-(difluoromethoxy)phenyl)-1-(5-fluoropyrimidin-2-yl)-N-(3-methyl-1,1-dioxidotetrahydrothiophen-3-yl)-1H-indole-6-carboxamide (enantiomer A)]

- IC50: 2.9 nM
SMILES: O=C(NC1CCS(=O)(=O)C1)c1ccc2c(-c3cccc(C4CC4)c3)cn(-c3ccc(F)cc3)c2c1 (single isomer, unassigned; enantiomer a) [Example 26-A, 3-(3-Cyclopropylphenyl)-N-(1,1-dioxidotetrahydrothiophen-3-yl)-1-(4-fluorophenyl)-1H-indole-6-carboxamide (Enantiomer A)]

- IC50: 692 nM
SMILES: Cc1c(-c2ccccc2Cl)c2ccc(C(=O)NC3(C)CCS(=O)(=O)C3)cc2n1-c1ccc(F)cc1 (single isomer, unassigned; enantiomer b) [Example 8-B, 3-(2-chlorophenyl)-1-(4-fluorophenyl)-2-methyl-N-(3-methyl-1,1-dioxidotetrahydrothiophen-3-yl)-1H-indole-6-carboxamide (Enantiomer B)]

Second part, the molecule before the results:

SMILES: CC1(NC(=O)c2ccc3c(-c4ccccc4Cl)c(C#N)n(-c4ccc(F)cc4)c3c2)CCS(=O)(=O)C1 (single isomer, unassigned; enantiomer a) [Example 9-A, 3-(2-chlorophenyl)-2-cyano-1-(4-fluorophenyl)-N-(3-methyl-1,1-dioxidotetrahydrothiophen-3-yl)-1H-indole-6-carboxamide (Enantiomer A)]
- IC50: 448 nM

SMILES: O=C(NC1CCS(=O)(=O)C1)c1ccc2c(-c3cccc(C4CC4)c3)cn(-c3ccc(F)cn3)c2c1 (single isomer, unassigned; enantiomer a) [Example 11-A, 3-(3-cyclopropylphenyl)-N-(1,1-dioxidotetrahydrothiophen-3-yl)-1-(5-fluoropyridin-2-yl)-1H-indole-6-carboxamide (enantiomer A)]
- IC50: 2.1 nM

SMILES: CC1(NC(=O)c2ccc3c(-c4cccc(C5CC5)c4)cn(-c4ccc(F)cn4)c3c2)CCS(=O)(=O)C1 (single isomer, unassigned; enantiomer a) [Example 12-A, 3-(3-cyclopropylphenyl)-1-(5-fluoropyridin-2-yl)-N-(3-methyl-1,1-dioxidotetrahydrothiophen-3-yl)-1H-indole-6-carboxamide (enantiomer A)]
- IC50: 0.79 nM

SMILES: CC1(NC(=O)c2ccc3c(-c4ccccc4Cl)cn(-c4ccc(F)cn4)c3c2)CCS(=O)(=O)C1 (single isomer, unassigned; enantiomer a) [Example 14-A, 3-(2-chlorophenyl)-1-(5-fluoropyridin-2-yl)-N-(3-methyl-1,1-dioxidotetrahydrothiophen-3-yl)-1H-indole-6-carboxamide (Enantiomer A, Fast)]
- IC50: 16 nM

SMILES: CC1(NC(=O)c2ccc3c(-c4cccc(C5CC5)c4)cn(-c4ncc(F)cn4)c3c2)CCS(=O)(=O)C1 (single isomer, unassigned; enantiomer a) [Example 16-A, 3-(3-cyclopropylphenyl)-1-(5-fluoropyrimidin-2-yl)-N-(3-methyl-1,1-dioxidotetrahydrothiophen-3-yl)-1H-indole-6-carboxamide (enantiomer A)]
- IC50: 2.7 nM

SMILES: O=C(NC1CCS(=O)(=O)C1)c1ccc2c(-c3cccc(OC(F)F)c3)cn(-c3ncc(F)cn3)c2c1 (single isomer, unassigned; enantiomer a) [Example 19-A, 3-(3-(difluoromethoxy)phenyl)-N-(1,1-dioxidotetrahydrothiophen-3-yl)-1-(5-fluoropyrimidin-2-yl)-1H-indole-6-carboxamide (enantiomer A)]
- IC50: 1.6 nM

SMILES: O=C(NC1CCS(=O)(=O)C1)c1ccc2c(-c3cccc(OC(F)F)c3)cn(-c3ccc(F)cc3)c2c1 (single isomer, unassigned; enantiomer a) [Example 27-A, 3-(3-(difluoromethoxy)phenyl)-N-(1,1-dioxidotetrahydrothiophen-3-yl)-1-(4-fluorophenyl)-1H-indole-6-carboxamide (enantiomer A)]
- IC50: 0.52 nM

SMILES: CC1(NC(=O)c2ccc3c(-c4ccccc4Cl)cn(-c4ccc(F)cc4)c3c2)CCS(=O)(=O)C1 (single isomer, unassigned; enantiomer b) [Example 1-B, 3-(2-chlorophenyl)-1-(4-fluorophenyl)-N-(3-methyl-1,1-dioxidotetrahydrothiophen-3-yl)-1H-indole-6-carboxamide (Enantiomer B, slow)]
- IC50: 6.6 nM

SMILES: CC1(NC(=O)c2ccc3c(-c4ccccc4Cl)c(C#N)n(-c4ccc(F)cc4)c3c2)CCS(=O)(=O)C1 (single isomer, unassigned; enantiomer b) [Example 9-B, 3-(2-chlorophenyl)-2-cyano-1-(4-fluorophenyl)-N-(3-methyl-1,1-dioxidotetrahydrothiophen-3-yl)-1H-indole-6-carboxamide (Enantiomer B)]
- IC50: 235 nM

SMILES: CC1(NC(=O)c2ccc3c(-c4cccc(OC(F)F)c4)cn(-c4ccc(F)cn4)c3c2)CCS(=O)(=O)C1 (single isomer, unassigned; enantiomer b) [Example 10-B, 3-(3-(difluoromethoxy)phenyl)-1-(5-fluoropyridin-2-yl)-N-(3-methyl-1,1-dioxidotetrahydrothiophen-3-yl)-1H-indole-6-carboxamide (enantiomer B)]
- IC50: 1 nM

SMILES: CC1(NC(=O)c2ccc3c(-c4cccc(C5CC5)c4)cn(-c4ccc(F)cn4)c3c2)CCS(=O)(=O)C1 (single isomer, unassigned; enantiomer b) [Example 12-B, 3-(3-cyclopropylphenyl)-1-(5-fluoropyridin-2-yl)-N-(3-methyl-1,1-dioxidotetrahydrothiophen-3-yl)-1H-indole-6-carboxamide (enantiomer B)]
- IC50: 0.73 nM

SMILES: CC1(NC(=O)c2ccc3c(-c4ccccc4Cl)cn(-c4ccc(F)cn4)c3c2)CCS(=O)(=O)C1 (single isomer, unassigned; enantiomer b) [Example 14-B, 3-(2-chlorophenyl)-1-(5-fluoropyridin-2-yl)-N-(3-methyl-1,1-dioxidotetrahydrothiophen-3-yl)-1H-indole-6-carboxamide (Enantiomer B, Slow)]
- IC50: 9.8 nM
